In patent US20100286762A1, “Compositions and Methods for Ameliorating Clinical Electrical Disturbances” (MUSC Foundation for Research Development, priority 2009, published 2010):
“Also recorded” adds a separate entry of the source.

Key:
cryoinjured mouse hearts [1] = experiment: Arrhythmia induction (S2-S3 premature beat protocol, overdrive pacing) in Langendorff-perfused hearts one week after cryoinjury; format: in vivo
Protocol: Following cryoinjury by application of 3 mm liquid nitrogen chilled probe hearts in anesthetized mice were treated with a methycellulose patch containing either ˜9 ug of ACT1 peptide, ˜9 ug of reverse control peptide or no peptide (vehicle control). Mice were then allowed to recover for a week. A week following the injury, Langherdorf-perfused hearts from the mice were subject to 2 types of electrical stimulation inducing arrhythmia: a) S2-S3 premature beat protocol and b) Overdrive pacing. Electrical recordings were made and induced arrhythmic behaviors were categorized including delayed after depolarizations, ectopic beats, ventricular tachycardia, and ventricular fibrillation. […] Severity was graded according to the electrical abnormality noted (e.g. ventricular tachycardia was scored lower than ventricular fibrillation) and the persistence of the electrical abnormality (e.g. intermittent tachycardia was scored lower than persistent tachycardia). […] A similar trend is seen in response to overdrive pacing, although in this case the difference between the treatment and controls are not significant at p=0.05. The “All control” group represents pooled reverse and vehicle control counts.

[2] = test system: HeLa cells expressing wt Cx43; experiment: Scrape loading assay of GJ intercellular communication (GJIC); format: cell-based; settings: relative to control and parental non-connexin expressing cells, p<0.05
Text: It has been previously shown that inhibition of ZO-1 interaction with Cx43 increases GJ size in HeLa Cx43 and increases the proportion of Triton-insoluble-Cx43 in GJs, without altering Cx43 expression levels or turnover (Hunter et al., 2005). Based on this and other data, it was proposed that ZO-1 inhibits the transition from non-junctional and gap junctional Cx43 (Hunter et al. 2005). The question of where ZO-1 exerted this control to this point is unknown. Here, it is disclosed that ZO-1 regulates movement of connexons in the plasma membrane into GJs. FIG. 1 outlines how this works. The model disclosed herein predicts that inhibiting Cx43/ZO-1 interaction will result in an increase in GJ intercellular communication (GJIC) and a complementary decrease of free-membrane connexons. The well-characterized “scrape loading” technique was used to assess GJIC in HeLa cells expressing wt Cx43.

[3] = test system: Cx43 hemichannel in HeLa Cx43 cells; experiment: Connexon channel (hemichannel) function by EtdBr uptake in live cells; format: cell-based
Protocol: Functional and biochemical assays were used to assess whether the predicted reduction in free-membrane connexons occurs. First, connexon channel (hemichannel) function was assayed using EtdBr uptake in live cells as described by Saez and co-workers. […] In a variant of this experiment, the cells were also cultured at low density such that no GJs could form. Again consistent with the model, in the absence of GJs for free connexons in the membrane to be recruited to, ACT1 had no affect (FIG. 2).

[4] = test system: neonatal rat ventricular myocytes (NVRMs) monolayers and NCRFs; experiment: Adherence of dispersed fibroblasts (NCRFs) to myocyte (NVRM) monolayers; format: cell-based; settings: 48 hr timecourse
Protocol: (§1) FIGS. 4A-4F show ZO-1 regulation of differential adhesion between Cx43 expressing cells. A. Segregation of Cx43-GFP cells from DiI-labeled HeLa Cx43 cells. […] C and D. Cohesion patterns of orange-tagged NVRMs from green-tagged NCRFs following control (top) or ACT1ACT1 (bottom) incubation. […] Scale A=5 um, C, D=25 um.
(§2) In another approach neonatal rat ventricular myocytes (NVRMs) were cultured as monolayers and the propensity of added dispersed NCRFs to adhere to this layer was measured. […] In the second approach, green CellTracker-tagged fibroblasts are mixed with orange CellTracker-tagged myocytes and cultured as aggregates (FIG. 4C,D). […] Disclosed herein, and supported by the disclosed data, the regulation of connexon aggregation via ZO-1 PDZ2 can dynamically adjust the level of differential adhesivity between cells in heterocellular contacts (e.g., fibroblasts and myocytes).

NVRM / NCRF aggregates = experiment: Mixed aggregate culture of CellTracker-tagged fibroblasts and myocytes; format: cell-based, rat; settings: relative to control aggregates
Protocol: as §1, §2

cryoinjured mouse hearts [5] = settings: formulation applied coincident with cryo-infarction; 1 week following the injury; O'Quinn et al., Circulation, 2008; cited from earlier work
[6] = S2-S3 premature beat protocol, methycellulose patch ~9 ug peptide at cryoinjury, hearts tested a week later
[7] = overdrive pacing, methycellulose patch ~9 ug peptide at cryoinjury, hearts tested a week later

Q: What does the source list for “ACT1: Cx43 CT sequence RPRPDDLEI (SEQ ID NO:1), can be attached to antennapedia sequence: RQPKIWFPNRRKPWKK RPRPDDLEI (SEQ ID NO3) (optionally antennapedia sequence; UniProt P17302 374-382, looked up, fragment)”?
A: S2-S3 Protocol Arrhythmic (numbers of mice displaying an arrhythmia response) (cryoinjured mouse hearts [1]; [6]): 1; S2-S3 Protocol Stable (numbers of mice) (cryoinjured mouse hearts [1]; [6]): 6; Overdrive Pacing Arrhythmia (numbers of mice displaying an arrhythmia response) (cryoinjured mouse hearts [1]; [7]): 2; Overdrive Pacing Stable (numbers of mice) (cryoinjured mouse hearts [1]; [7]): 5; Arrhythmia Severity Index Mean (cryoinjured mouse hearts [1]; severity graded by electrical abnormality and its persistence, patch ~9 ug peptide, a week after cryoinjury): 1.71; electrical stability in response to the S2-S3 arrhythmia induction protocol (cryoinjured mouse hearts [1]; vs controls, chi squares p=0.05 or below): improved electrical stability; GJ intercellular communication (GJIC) [2]: significantly increased GJIC; hemichannel activity (EtdBr uptake), cells at low density ([3]; cells cultured at low density such that no GJs could form): no affect; hemichannel activity (EtdBr uptake) ([3]; contacting HeLa Cx43 cells, relative to controls and non-connexin expressing HeLa cells, p<0.05): significantly decreases EtdBr uptake; also recorded: decreased hemichannel activity; adherence of NCRFs to NVRM monolayers [4]: decreased the adherence; adherence of NCRFs to NVRM monolayers ([4]; listed as ACT1ACT1): reduction in fibroblast (NCRF) adhesion; exclusion/loss of NCRFs from aggregates (NVRM / NCRF aggregates): increased exclusion/loss of NCRFs; segregation of myocytes and fibroblasts in aggregates / cohesion index (% co-localization orange and green) of NVRMs (NVRM / NCRF aggregates): tend to segregate into cohesive domains of like cells; exclusion/loss of NCRFs from aggregates (NVRM / NCRF aggregates; listed as ACT1ACT1): Fibroblasts are excluded more; segregation of myocytes and fibroblasts in aggregates / cohesion index (% co-localization orange and green) of NVRMs (NVRM / NCRF aggregates; listed as ACT1ACT1): is higher; arrhythmia susceptibility of heart after cryo-infarction to the ventricle (cryoinjured mouse hearts [5]): renders the heart refractory to arrhythmia-inducing electrophysiological protocols
